We go through one compound from patent publication US20120329709A1, “PRODUCTION OF GLYCOPROTEINS” (priority 2009, published 2012).

Assay [1] relates to CHO cells. The assay can be described thus: Intracellular sugar-nucleotide levels from CHO cells cultured with Uridine supplementation. Type of assay: cell-based, Chinese hamster. Also on record: CMP-NeuAc, average increase in sugar-nucloetide above no supplemented cells / UDP-Gal, average increase in sugar-nucloetide above no supplemented cells / UDP-Glc, average increase in sugar-nucloetide above no supplemented cells / UDP-GlcNAc, average increase in sugar-nucloetide above no supplemented cells / GDP-Man, average increase in sugar-nucloetide above no supplemented cells: unit not given here. As to conditions: for CMP-NeuAc, average increase in sugar-nucloetide above no supplemented cells / GDP-Fuc, average increase in sugar-nucloetide above no supplemented cells / GDP-Man, average increase in sugar-nucloetide above no supplemented cells / UDP-Gal, average increase in sugar-nucloetide above no supplemented cells / UDP-Glc, average increase in sugar-nucloetide above no supplemented cells / UDP-GlcNAc, average increase in sugar-nucloetide above no supplemented cells: intracellular, CHO cells. On the procedure: (§1) Chinese hamster ovary (CHO) cells were supplemented with the nucleoside uridine. Cells were harvested, and snap frozen, while culture supernatant was harvested and CTLA4Ig harvested by protein A purification for subsequent analysis. Cells were then subjected to nucleotide sugar extraction using standard methods. In short, this was performed with chloroform:methanol:water (2:4:1), the pellets discarded, and the resulting extraction dried down. The dried material was subsequently resuspended in 500 ul of 10% butanol in water and then extracted with 1 ml of 90% butanol in water. The butanol phase was discarded and the acqueous subjected to a second butanol extraction. The final aqueous phase was dried down and the sugar nucleotides further isolated by PGC chromatography eluting off with 25% acetonitrile (v/v) containing 50 mM triethylammonium acetate. For quantification, sugar-nucletides were resolved with RP chromatography.

Assay [2] relates to CHO cells. The assay is described as follows: LC-MS analysis of glycans from CTLA4Ig produced by CHO cells in the presence of elevated uridine. Type of assay: cell-based, Chinese hamster. As to conditions: CTLA4Ig from uridine-supplemented CHO cells, compared to the untreated control.
Source text: FIG. 1 is a depiction of the levels of glycans from recombinant fusion protein CTLA4-IgG produced in the presence of elevated uridine. Data are expressed as the ratio of the amount of the indicated glycan from control conditions to the amount of the same glycan produced in the presence of elevated uridine. Values are the average +/−SD of duplicate determinants. A value greater than one indicates the species is in greater abundance under the control conditions.
as §1, with “The butanol phase was discarded and the acqueous subjected to a second butanol extraction. The final aqueous phase was dried down and the sugar nucleotides further isolated by PGC chromatography eluting off with 25% acetonitrile (v/v) containing 50 mM triethylammonium acetate.” left out
Protein product was deglycosylated with PNGase F for 18 hours and the resulting glycans isolated with PGC chromatography. […] Resulting MS peak areas were quantified and for each glycan the ratio of the control vs. the uridine treated samples was determined.

On to `O=c1ccn([C@@H]2O[C@H](CO)[C@@H](O)[C@H]2O)c(=O)[nH]1` [Uridine, uridine], for which the “levels of the uridine sugars including UDP-Gal and UDP-GlcNAc” value in assay [1] (CHO cells supplemented with uridine) is given as “increased significantly”. Besides, in assay [1] (Uridine 2 x), the “CMP-NeuAc, average increase in sugar-nucloetide above no supplemented cells” value is listed as 32.13; the “GDP-Fuc, average increase in sugar-nucloetide above no supplemented cells” value was 6.5; the “GDP-Man, average increase in sugar-nucloetide above no supplemented cells” value is 6.06; the “UDP-Gal, average increase in sugar-nucloetide above no supplemented cells” value is listed as 168.97. Further, in assay [1] (Uridine 2 x), the “UDP-Glc, average increase in sugar-nucloetide above no supplemented cells” value was 409.16 and the “UDP-GlcNAc, average increase in sugar-nucloetide above no supplemented cells” value is recorded as 402.7. Further, in assay [1] (Uridine 10 x), the “CMP-NeuAc, average increase in sugar-nucloetide above no supplemented cells” value amounted to 50.52; the “GDP-Fuc, average increase in sugar-nucloetide above no supplemented cells” value is 8.98; the “GDP-Man, average increase in sugar-nucloetide above no supplemented cells” value was 12.45; the “UDP-Gal, average increase in sugar-nucloetide above no supplemented cells” value worked out at 389.06. In assay [1] (Uridine 10 x), the “UDP-Glc, average increase in sugar-nucloetide above no supplemented cells” value came out at 1261.96 and the “UDP-GlcNAc, average increase in sugar-nucloetide above no supplemented cells” value was 2280.49. Further, the “level of the monogalactosylated species on the protein product” value in assay [2] was “rises”.
